Columns and labels:
[1] = system: locomotor activity in rats; test: Spontaneous locomotor activity (open field); format: in vivo; conditions: clozapine comparator, dose not given
Experimental: One of the common side effects of many antipsychotic drugs is sedation. It has been shown that agents that have sedative actions in man have the same effect in animals. The purpose of these studies was to evaluate the effect of test compounds on the locomotor activity in rats, which is used to assess the sedative properties of antipsychotic compounds.
The animals (male Sprague Dawley rats, about 300-450 g; Charles River) were assessed for ambulation for 30 minutes before and for 30 min after vehicle or test compounds. […] Locomotor activity is quantified by the number of photobeams crossed by the animal over several 3×10 min intervals.

[2] = system: catalepsy in mice; test: Catalepsy mouse model; format: in vivo; conditions: highest dose 30 mg/kg
Experimental: A catalepsy mouse model was used to investigate a potential side effect of antipsychotic agents.
The catalepsy methodology used herein has been adapted from Tada, M. et al. ((2004). Psychopharmacol., 176, 94-100) as well as Wang et al. ((2000). J. Neurosci., 20, 8305-8314).
The animals (Swiss Webster, female, about 20 g; Charles River) were administered compounds of the invention (1 μg/kg-30 mg/kg ip). Twenty seven minutes after test compound injection, the mice's forepaws were placed on a horizontal steel bar (diameter 0.2 cm), elevated 3-5 cm above the tabletop and the time taken for the animals to remove both paws was recorded for up to 2 min.

`CN1CCN(C2=Nc3cc(Cl)ccc3Nc3ccccc32)CC1` [clozapine, reference compound] was tested. Which “locomotor activity in rat (open field)” value [1] did it give?
Its value is “trend toward sedation”.

And the catalepsy [2]?
Its catalepsy is “induced catalepsy”.

From patent US20120178738A1, “DIBENZO [B,F] [1,4]OXAZAPINE COMPOUNDS” (ARYX THERAPEUTICS, INC., priority 2007, published 2012)
